This test concerns the target T1, hTRPA1 (Homo sapiens, UniProt O75762).
T1 construct: host or cells: CHO-K1 Tet-On, clone 20, expression induced with tetracycline/doxycycline
Briefly: Dose response calcium flux (FLIPR) assay, ChanTest hTRPA1-CHO stably transfected cell line, cinnamaldehyde agonist. Particulars: CHO-K1 Tet-On hTRPA1 Clone 20 cells, 30 min compound preincubation, cinnamaldehyde final 100 uM. The test is classed as cell-based. The method, then: Dose Response Assay: ChanTest hTRPA1-CHO Stably Transfected Cell Line
To induce expression, tetracycline was added to blasticidin/zeocin-free media at a final concentration of 1 ug/ml. Experiments were run at 24 h post induction.
Measured cell density and diluted to 2.4×10^5 cells/ml in media containing 1 ug/ml Doxycycline Plate 25 ul/well into 384 well black/clear tissue culture-treated plates.
Replacement Buffer: Hank's Balanced Salt Solution, 20 mM HEPES along with 0.005% BSA and 2× Probenecid
Dye Loading Buffer: Cal-3 NW Calcium dye was prepared by dissolving the contents of one vial with 500 ml Hank's Balanced Salt Solution containing 20 mM HEPES. • Control compounds for CHOK1/TRPA1 cells:
AP-18, stock 10 mM, prepare 3.5× compound dilution in a Compound Buffer (HBSS/20mM HEPES/0.005% BSA)—final concentration 10 uM.
Preparation of Cinnamaldehyde (agonist addition): • FW=132.16 • Specific gravity=1.046 gm/cc • 1.32 gm/1.046 gm/cc=1.26 ml of stock • Add 1.74 ml DMSO=3.3 M stock • Working solution 4.5× (final 100 uM in Compound Buffer: HBSS/20 mM HEPES/0.005% BSA)
Compounds dilutions were prepared from 5 or 10 mM stock (100% DMSO):
Compounds were tested at either 20 μM three folds dilution 11 steps out or 30 μM two folds dilution 11 steps out.
3 μl of diluted compound were transferred into Weidmann 384—well plate in duplicates side-by-side.
Compound plates were resuspended with 100 ul of HBSS/20 mM HEPES/0.005% BSA buffer (Compound Buffer): • column 1A-H: buffer/DMSO (bk) • column 2A-H: AP-18(control antagonist for CHOK1 TRPA1 cells) • column 1I-P: ATP (control for CHOK1 teton cells) • column 2 I-P: 2APB (control antagonist for CHOK1/TRPM8 cells).
Growth media was removed from the cell plates (20 ul) and 20 ul of the Replacement Buffer was added followed by addition of 25 ul of diluted dye. All three steps were performed using a Plate Washer BioTek 407. The plates were then incubated for 30′ at RT.
After incubation, both the cell and compound plates were brought to the FLIPR and 20 ul of the diluted compounds/antagonist/bk were transferred to the cell plates by the FLIPR. Plates were then incubated for 30′ at room temperature. After 30′ incubation, plates were returned to the FLIPR and 20 ul of 4.5× Cinnamaldehyde was added to the cell plates. During the compound addition as well as agonist addition, fluorescence readings were taken simultaneously from all 384 wells of the cell plate every 1.5 seconds. Five readings were taken to establish a stable baseline, then 20 μl of sample was rapidly (30 ul/sec) and simultaneously added to each well of the cell plate. The fluorescence was continuously monitored before, during and after sample/agonist addition for a total elapsed time of 100 seconds (compound addition) and 120 seconds (agonist addition). Responses (increase in peak fluorescence) in each well following agonist addition was determined. The initial fluorescence reading from each well, prior to ligand stimulation, was used a zero baseline value for the data from that well.
A general note: Calcium flux is commonly read through the fluorescence of an indicator in the cells.

T1 sequence (O75762 whole entry): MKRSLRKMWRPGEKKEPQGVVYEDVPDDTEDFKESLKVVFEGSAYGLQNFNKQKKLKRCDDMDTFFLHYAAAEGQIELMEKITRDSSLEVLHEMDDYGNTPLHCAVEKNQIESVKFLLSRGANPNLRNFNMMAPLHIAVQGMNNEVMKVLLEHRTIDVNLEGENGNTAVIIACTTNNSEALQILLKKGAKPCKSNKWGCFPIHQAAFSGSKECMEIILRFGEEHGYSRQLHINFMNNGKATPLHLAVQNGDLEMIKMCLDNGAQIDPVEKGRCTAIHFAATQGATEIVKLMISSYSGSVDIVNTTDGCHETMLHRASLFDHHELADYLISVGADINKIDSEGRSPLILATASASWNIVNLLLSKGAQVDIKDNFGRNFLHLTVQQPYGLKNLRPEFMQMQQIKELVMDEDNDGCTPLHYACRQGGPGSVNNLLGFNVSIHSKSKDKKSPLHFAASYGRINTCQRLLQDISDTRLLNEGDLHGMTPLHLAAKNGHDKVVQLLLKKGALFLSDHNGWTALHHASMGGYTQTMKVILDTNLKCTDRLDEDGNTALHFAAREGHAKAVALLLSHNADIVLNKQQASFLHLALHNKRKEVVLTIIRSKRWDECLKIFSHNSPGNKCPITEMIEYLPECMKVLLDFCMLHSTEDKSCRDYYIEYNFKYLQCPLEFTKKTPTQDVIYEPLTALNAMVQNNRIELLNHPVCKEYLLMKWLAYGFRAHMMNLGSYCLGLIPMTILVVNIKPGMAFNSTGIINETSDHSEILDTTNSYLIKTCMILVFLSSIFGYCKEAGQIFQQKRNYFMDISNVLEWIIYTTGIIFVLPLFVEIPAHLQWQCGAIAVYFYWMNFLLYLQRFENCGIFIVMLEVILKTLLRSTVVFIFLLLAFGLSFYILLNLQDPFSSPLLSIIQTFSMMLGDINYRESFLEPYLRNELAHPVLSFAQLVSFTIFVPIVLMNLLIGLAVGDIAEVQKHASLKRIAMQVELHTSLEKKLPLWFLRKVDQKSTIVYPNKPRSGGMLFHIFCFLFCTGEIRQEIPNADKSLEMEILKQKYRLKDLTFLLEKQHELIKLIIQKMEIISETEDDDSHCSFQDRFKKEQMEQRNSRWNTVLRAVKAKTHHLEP

On to `COc1nccc(I)c1-c1cc2ccc(NC(=O)c3cccc(Cl)c3)cc2[nH]1` [Example 11, 3-Chloro-N-[2-(4-iodo-2-methoxy-pyridin-3-yl)-1H-indol-6-yl]-benzamide], for which the concentration for half-maximal inhibition (IC50) – broadly, the point on the concentration scale where inhibition reaches its midpoint – came out at 2.9 µM.

Take `COc1nccc(I)c1-c1cc2ccc(N(C)C(C)=O)cc2[nH]1` [Example 7, N-[2-(4-Iodo-2-methoxy-pyridin-3-yl)-1H-indol-6-yl]-N-methyl-acetamide]: the half-maximal inhibitory concentration (IC50) was found to be 3.6 µM.

For the compound `COc1nccc(I)c1-c1cc2ccc(NC(=O)C(F)F)cc2[nH]1` [Example 3, 2,2-Difluoro-N-[2-(4-iodo-2-methoxy-pyridin-3-yl)-1H-indol-6-yl]-acetamide], the half-maximal inhibitory concentration (IC50) worked out at 4.2 µM.

For `COc1cccc(Cl)c1-c1cc2ccc(NC(=O)C(F)(F)F)cc2[nH]1` [Example 10, N-[2-(2-Chloro-6-methoxy-phenyl)-1H-indol-6-yl]-2,2,2-trifluoro-acetamide], the 50% inhibitory concentration (IC50) stood at 0.75 µM.

As to `COc1nccc(Cl)c1-c1cc2ccc(NC(=O)C(F)(F)F)cc2[nH]1` [Example 4, N-[2-(4-Chloro-2-methoxy-pyridin-3-yl)-1H-indol-6-yl]-2,2,2-trifluoro-acetamide], the IC50 was found to be 0.46 µM.

Regarding `COc1nccc(I)c1-c1cc2ccc(N(C)C(=O)C(F)F)cc2[nH]1` [Example 6, 2,2-Difluoro-N-[2-(4-iodo-2-methoxy-pyridin-3-yl)-1H-indol-6-yl]-N-methyl-acetamide], the IC50 was found to be 3.3 µM.

In the case of `COc1cc2cc(-c3c(I)ccnc3OC)[nH]c2cc1N` [Example 8, 2-(4-Iodo-2-methoxy-pyridin-3-yl)-5-methoxy-1H-indol-6-ylamine], the IC50 was determined as 0.74 µM.

`COc1cccc(Cl)c1-c1cc2ccc(N)cc2[nH]1` [Example 9, 2-(2-Chloro-6-methoxy-phenyl)-1H-indol-6-ylamine]: the half-inhibitory concentration (IC50) came out at 4.3 µM.

For the compound `COc1nccc(I)c1-c1cc2ccc(NC(=O)OC(C)(C)C)cc2[nH]1` [Example 1, [2-(4-Iodo-2-methoxy-pyridin-3-yl)-1H-indol-6-yl]-carbamic acid tert-butyl ester], the half-maximal inhibitory concentration (IC50) was determined as 4 µM.

`COc1nccc(Cl)c1-c1cc2ccc(NC(=O)c3cccc(Cl)c3)cc2[nH]1` [Example 12, 3-Chloro-N-[2-(4-chloro-2-methoxy-pyridin-3-yl)-1H-indol-6-yl]-benzamide]: the IC50 came to 5.6 µM.

`CNc1ccc2cc(-c3c(I)ccnc3OC)[nH]c2c1` [Example 5, [2-(4-Iodo-2-methoxy-pyridin-3-yl)-1H-indol-6-yl]-methyl-amine]: the concentration for half-maximal inhibition (IC50) turned out to be 5.5 µM.

For the compound `COc1nccc(I)c1-c1cc2ccc(NC(=O)C(F)(F)F)cc2[nH]1` [Example 2, 2,2,2-Trifluoro-N-[2-(4-iodo-2-methoxy-pyridin-3-yl)-1H-indol-6-yl]-acetamide], the IC50 came out at 0.71 µM.

In the case of `COc1nccc(Cl)c1-c1cc2ccc(NC(=O)[C@@H]3CCCCN3S(=O)(=O)c3ccc(F)cc3)cc2[nH]1` [Example 13, (S)-1-(4-Fluoro-benzenesulfonyl)-piperidine-2-carboxylic acid[2-(4-chloro-2-methoxy-pyridin-3-yl)-1H-indol-6-yl]amide], the IC50 amounted to 3.5 µM.

These data come from patent publication US9388166B2, “6-aminoindole derivatives as TRP channel antagonists” (Hoffmann-La Roche Inc., priority 2012, dated 2016).
